# Legend:
# [1] = system: ES-R1 cells; assay: RT-PCR analysis of marker gene expression in differentiated mouse ES cells; assay type: cell-based, mice; settings: end of step 2
# Procedure: (§1) Step 1, to induce embryonic body (EB) formation, ES cells were dissociated with trypsin and suspended into Petri dishes (Alpha medical instrument) with 10% FBS/DMEM without LIF. After 24 to 48 hours (See FIG. 1B), EBs were collected and re-plated into 10% FBS/DMEM without LIF in 1% Matrigel (BD Biosciences) coated dishes. Two hours later, EBs began to spread onto the dishes and were cultured in 10% FBS/DMEM with 100 ng/ml activin A (Sigma) for 24 hours. Then EBs were switched to 10% FBS/DMEM for 6-8 hours as an interval. After this interval, the differentiated EB cells were cultured in 10% FBS/DMEM with 10^−6 M RA (Sigma) for another 24 hours.
# (§2) Step 3, to mature the insulin producing cells, the expanded cells in step 2 were switched to DMEM/F12 (Gibco-BRL) with N2 supplement (1:100, Gibco-BRL), B27 supplement (1:50 Gibco-BRL), 1 μg/ml Laminin (Sigma), 10 ng/ml bFGF (Sigma) and 10 mM nicotinamide (Sigma) and cultured for 3-5 days (Lumelsky N, Blondel O, Laeng P, et al. Differentiation of embryonic stem cells to insulin-secreting structures similar to pancreatic islets. Science 2001; 292:1389-1394.) The morphology of cells was observed under a Nikon phase-contrast microscope (TS-100).
# Total RNA was extracted by Catrimox-14 kit (TaKaRa) from the cells in step 2 or step 3 which were induced by both with and without activin A and RA or with only one of them. […]
# [2] = system: ES-R1 cells; assay: Cell cluster formation on coated dishes during three-step induction; assay type: cell-based, mice; settings: dish coating matrix, third step of induction
# Procedure: as §1, §2
Molecule,marker genes expressed (RT-PCR) [1],cell cluster formation [2]
"CC1=C(/C=C/C(C)=C/C=C/C(C)=C/C(=O)O)C(C)(C)CCC1 [RA, All-trans retinoic acid]",express only hnf3β,
laminin,,no cell clusters formed
"activin A: a member of TGF-β superfamily; disulfide-stabilized protein (protein, UniProt P08476 311-426, looked up) Inhibin beta A chain: GLECDGKVNICCKKQFFVSFKDIGWNDWIIAPSGYHANYCEGECPSHIAGTSGSSLSFHSTVINHYRMRGHSPFANLKSCCVPTKLRPMSMLYYDDGQNIIKKDIQNMIVEECGCS",mainly express hnf3β and pdx-1,
